Each structure is given as a SMILES string. Values after ≈ are worked out from the molar mass of the structure shown.

One data set in a line: Solubility in water at 25° C. The following applies: 25° C.
For the compound `Cc1cc(C)c(C(=O)P(=O)(O)C(=O)c2c(C)cc(C)cc2C)c(C)c1` [BAPO-ONa, sodium bis(2,4,6-trimethylbenzoyl)phosphine oxide], the “Solubility in water at 25° C.” value was 60 mg/mL.

For `CC12CCC(C(=O)C1=O)C2(C)C` (stereo not drawn) [CQ, d1-camphorquinone], the “Solubility in water at 25° C.” value came out at 1.7 mg/mL (≈ 10.2 mM).

`Cc1cc(C)c(C(=O)P(=O)(c2ccccc2)c2ccccc2)c(C)c1` [TMDPO, 2,4,6-trimethylbenzoykliphenylphosphine oxide, reference compound]: the “Solubility in water at 25° C.” value is less than 1 mg/mL.

Staying with this data set, now noted: 25 °C.
A word on the solubility: it is how much of the substance goes into solution per volume. On to `Cc1cc(C)c(C(=O)P(=O)(O)c2ccccc2)c(C)c1` [Li-TPO, lithium (2,4,6-trimethylbenzoyl)phenylphosphine oxide], for which the solubility amounted to 45 mg/mL (≈ 156 mM).

The data set is the same for the next values; noted with them: 25 °C, Solubility in water at 25° C.
As to `Cc1cc(C)c(C(=O)P(=O)(C(=O)c2c(C)cc(C)cc2C)c2ccccc2)c(C)c1` [BAPO, bis(2,4,6-trimethylbenzoyl)phenylphosphine oxide, reference compound], the solubility was less than 1 mg/mL.

The compound `COCCOCCOCC(=O)Nc1c(C)cc(C)c(C(=O)P(=O)(C(=O)c2c(C)cc(C)c(NC(=O)COCCOCCOC)c2C)c2ccccc2)c1C` [BAPO-A1, reference compound] yielded a solubility of less than 10 mg/mL.

As for `Cc1cc(C)c(C(=O)P(=O)(O)C(=O)c2c(C)cc(C)cc2C)c(C)c1` [BAPO-OLi, lithium bis(2,4,6-trimethylbenzoyl)phosphine oxide], the concentration in solution (solubility) was 52 mg/mL (≈ 145 mM).

Regarding `Cc1cc(C)c(C(=O)P(=O)(O)c2ccccc2)c(C)c1` [Na-TPO], the solubility was 28 mg/mL (≈ 97.1 mM).

`COCCOCCOC(=O)Nc1c(C)cc(C)c(C(=O)P(=O)(c2ccccc2)c2ccccc2)c1C` [TMDPO-A1, reference compound] showed a solubility of less than 10 mg/mL.

Source of the values: patent publication US11452674B2, “Non-solvent dental adhesive composition” (KURARAY NORITAKE DENTAL INC., priority 2017, dated 2022).
